Laboratory results from patent US7666677B2, “Production of stilbenes in plant hairy root cultures” (priority 2006, dated 2010).
Where “and” joins values, the source holds several entries; their conditions need not be identical. Identical values can stand only once.

Key:
[1] = system: hairy root cultures of peanut cv. Andru II; assay: Elicitation of peanut hairy root cultures, TLC/HPTLC of ethyl acetate extracts of the medium; type: cell-based, Arachis hypogaea; conditions: for fluorescent products induced in culture medium (TLC): line 2, 12-day culture, sodium acetate 10.2 mM, chitosan 10 mg/L, copper sulfate 600 μM, laminarin 1 mg/ml, cellulase 1 or 10 μg/ml; for fluorescent products induced in culture medium (TLC) / fluorescent compounds induced in culture medium (TLC, UV 365 nm): 24 hours; for fluorescent compounds induced in culture medium (TLC, UV 365 nm): all cv. Andru II hairy root lines tested, 12-day cultures, 600 μM copper sulfate or 10.2 mM sodium acetate; for color change of the root tissue and medium: lines 2, 3, 5 and 6 of cv. Andru II, elicitors applied 24 hours
Procedure: Establishment of hairy root cultures. Seeds of peanuts (Arachis hypogaea) cvs. Andru II and Hull (kindly provided by Dr. Daniel Gorbet, University of Florida) were surface sterilized as follows. Seeds were presoaked for 2 minutes in sterile water containing 0.003% Ivory™ detergent; immersed for 15 minutes in sterilization solution (50% Clorox™, 0.003% Ivory™ detergent) and rinsed in sterile water. To minimize Chlorox™ damage to the embryo, the test was aseptically removed and seeds were further rinsed in two changes of sterile water over a 15 minute period. Disinfected seeds were placed individually on plates containing B5 medium to allow emergence of the radicle and to screen for viable healthy seedlings. Germinated seedlings were transferred to Magenta™ boxes containing B5 medium and allowed to grow in continuous light at 28° C. for 15 to 21 days. Explants used for hairy root production were harvested following expansion of two true leaves.
Cotyledon, hypocotyl, leaf blade, stem and petiole explants were evaluated. Whole, intact plantlets were also tested. […] Intact seedlings and isolated explants were then evaluated for response to Agrobacterium infection. Three strains of Agrobacterium were tested: A. rhizogenes ATCC 15834, A. rhizogenes R1000 and A. tumefaciens EHA105 containing pRYG (containing rolA, rolB and rolC genes, Komarnytsky et al., 2004) plasmid. The latter plasmid was kindly provided by Dr. Ilya Raskin (Rutgers University, New Jersey) and mobilized into A. tumefaciens by freeze-thaw method (Holsters et al., 1978). Intact seedlings were inoculated with agrobacteria at the stem, petiole, or cotyledonary node. All other isolated explants were inoculated via epidermal incisions as described before (Medina-Bolivar et al., 2003; Medina-Bolivar and Cramer, 2004). Inoculated intact seedlings and explants were maintained in B5 medium plates under constant light at 28° C. Hairy roots developed at the inoculation site were harvested and transferred to B5 medium plates containing 600 mg/l cefotaxime, and maintained at 28° C. under continuous darkness. Roots were subcultured twice in this medium prior to transfer to antibiotic-free medium. Liquid hairy root cultures were established by inoculating ten 1-cm root tips into 250 ml flasks containing 50 ml of B5 medium. Roots were subcultured every 2 weeks and maintained on an orbital shaker at 90 rpm, 28° C. and continuous darkness.
(§1) Elicitation of hairy root cultures. […] All elicitors were dissolved in water and filter sterilized, except for chitosan which was dissolved in 1 M acetic acid. Following elicitation, all media was collected and frozen at −20° C. All root tissue was collected, fresh weight recorded and roots then rapidly frozen in liquid nitrogen prior to storage at −80° C. Controls included hairy root cultures incubated 24 hours with equivalent volumes of water or acetic acid as well as non-elicited media samples collected from the 12-day hairy root cultures prior to initiating the elicitation procedure. […] Media and root tissue were collected, processed and stored as outlined above.
(§2) Extraction of resveratrol from culture medium. Media samples were thawed (50 ml) and partitioned with 30 ml ethyl acetate in a separatory funnel. The organic phase was recovered and dried to completeness under nitrogen stream using a RapidVap N2 evaporation system (Labconco) at 40° C. and 40% rotor speed. These dried samples were resuspended in 50 μl of ethyl acetate for further analysis.
Qualitative TLC analysis. Aliquots of the extracts and pure, authentic standards of trans-resveratrol (Sigma Co, St. Louis, Mo.), polydatin—same chemical as piceid—(ChromaDex, Santa Ana, Calif.), pterostilbene (Sigma) and piceatannol (Sigma) were spotted on a 20×20 cm silica gel 60 CF254 TLC plates (Merck) or a 10×10 silica gel 60 CF254 HPTLC plates (Merck).

[2] = Solubility of resveratrol in organic solvents; type: physicochemical
Excerpt: Qualitative analyses of elicited peanut hairy root cultures. In an effort to rapidly assess the various hairy root lines for resveratrol production and secretion into the culture medium, we adapted a thin layer chromatographic method (TLC) that leverages the fluorescent nature of resveratrol at defined excitation wavelengths (Nepote et al., 2004). In a preliminary experiment, the culture medium was lyophilized to completeness and the dried medium was resuspended in methanol. This extract produced a very viscous solution which was difficult to resolve by TLC. In addition, the high content of carbohydrates in this sample appeared to bind the phenolic compounds (i.e. resveratrol). In an effort to overcome these issues, we optimized the purification of resveratrol in the culture medium by determining the solubility of resveratrol in various organic solvents. […] Initial analyses of the ethyl acetate extracts of hairy root media were compared by TLC to pure authentic references standards of trans-resveratrol and piceid. […] Andru II hairy root lines tested. The strongest fluorescent chemical was detected in the medium of sodium acetate-elicited hairy roots and generated an Rf of 0.83 corresponding to that of authentic trans-resveratrol. […]

[3] = system: hairy roots of muscadine grape; conditions: 10.2 mM sodium acetate, 24 hours, medium extract
Procedure: PCR analyses of hairy roots of muscadine grape (Vitis rotundifolia) cvs. Roots were analyzed for the presence of rol C and aux 2 genes. Hairy roots were cultured in B5 medium. […] Analysis was done under UV light (365 nm).

[4] = system: peanut hairy roots derived from the Hull cultivar; conditions: 10.2 mM sodium acetate, 24 hours, medium extract
Procedure: Using the materials and methods outlined above, resveratrol and resveratrol derivatives were elicited in the peanut hairy roots derived from the Hull cultivar. […] Control roots were not elicited. Elicited hairy root of peanut cv. Andru II (line pRYG-J) and cv. Hull s were cultured in B5 medium. […] Analysis was done under UV light (254 and 365 nm).

[5] = system: hairy root cultures of peanut, line 2
Procedure: as §1, §2
Quantitative analysis of resveratrol and pterostilbene by GC-MS. Dried medium or root tissue extracts (0.1 mg) were derivatized with 500 μL of a mixture of bis (trimethylsilyl)trifluoroacetamide:dimethyl formamide (1:1), heated at 70° C. for 40 min. After cooling to room temperature, samples were analyzed by gas chromatography/mass spectrometry (GC-MS) on a JEOL GCMate II system (JEOL USA, Inc., USA). […] The GC capillary column used was DB-5 (0.25 mm i.d., 0.25 […], 30 m length; Agilent Technologies, USA). The carrier gas was ultra high purity helium (nexAir, USA), 1 mL/min flow rate. The inlet (splitless), GC interface, and ion chamber temperatures were 250° C., 250° C., and 230° C., respectively. The injection volume was 2 μL.
Quantitative analysis of resveratrol and pterostilbene by GC-MS. […] Cis- and trans-resveratrol were monitored for m/z 444 (and 429, 207, 147 as qualifier ions). Cis- and trans-pterostilbene were monitored for m/z 328 (and 313, 296, 156 as qualifier ions). Quantitation was performed using external standards of a commercial sample of trans-resveratrol (Sigma) and a synthetic sample of trans-pterostilbene (synthesized from methylation of resveratrol). The cis isomers were obtained by UV-irradiation (λ 306 nm) of an ethanolic solution the trans isomers (1 mg/mL) for 24 hours.
Laboratory recovery of stilbenes. […] Therefore we have calculated resveratrol recoveries based on the dry weight (DW) of the ethyl acetate extract of the culture media.

[6] = system: hairy root cultures of N. benthamiana
Excerpt: Seeds of Nicotiana benthamiana were surface sterilized and germinated on MS semi-solid medium. Axillary nodes were harvested from the axenic seedlings and used to establish plantlets. The latter were then micropropagated in MS medium and leaves from these plantlets were used as explants for Agrobacterium rhizogenes inoculations. Leaves were harvested from 2-3 week old plantlets and placed on B5 medium. The leaves were inoculated in the midrib with A. rhizogenes ATCC 15834. Two to 3 weeks after inoculation hairy roots initiated at the inoculation site. The roots were then transferred to B5 medium with cefotaxime to eliminate agrobacteria. After several subcultures in this medium, the roots were transferred to antibiotic-free B5 medium. Confirmation of transformation with A. rhizogenes was done by PCR. […]
To test for elicitation of stilbenes (pinosylvin, resveratrol and their derivatives), hairy root cultures of N. benthamiana lines 3NB, 4NB, 5NB and 6NB were grown for either 2 or 3 weeks as described above. […] Stilbenes were detected with a coupled diode away and fluorescence (excitation 330 nm; emission 374 nm) detector.
Further analyses were conducted by reverse phase HPLC. […] Stilbenes were detected with coupled diode array and fluorescence (excitation 330 nm; emission 374 nm) detectors. […] These compounds were further analyzed by HPLC-ESI-mass spectrometry.

[7] = line 2, 15-day culture, 48 hours after elicitation

laminarin
fluorescent products induced in culture medium (TLC) [1]: induced production of a blue fluorescent chemical with an Rf 0.78

O=S(=O)([O-])[O-].[Cu+2] [copper sulfate]
fluorescent compounds induced in culture medium (TLC, UV 365 nm) [1]: induced production of blue fluorescent compounds
fluorescent products induced in culture medium (TLC) [1]: induced a fluorescent chemical of Rf 0.73
color change of the root tissue and medium [1]: induced the browning on the tissue and of the medium

cellulase
fluorescent products induced in culture medium (TLC) [1]: no fluorescent chemicals were detected

chitosan
fluorescent products induced in culture medium (TLC) [1]: induced the two products as observed for sodium acetate elicitation

Oc1ccc(/C=C/c2cc(O)cc(O)c2)cc1 [resveratrol, trans-3,4′,5-trihydroxystilbene]
solubility of resveratrol in ethyl acetate [2]: good solubility

CC(=O)[O-].[Na+] [sodium acetate]
elicitation of resveratrol and derivatives (HPTLC) [3]: achieved
production of resveratrol and derivatives (HPTLC) [4]: induced the production of resveratrol and derivatives
fluorescent compounds induced in culture medium (TLC, UV 365 nm) [1]: induced production of blue fluorescent compounds
fluorescent products induced in culture medium (TLC) [1]: induced two products
presence of resveratrol in culture medium, time course [1, 7]: decreased
pterostilbene levels in culture medium, time course [1, 7]: increased
trans-resveratrol and pterostilbene levels in culture medium, time course ([1]; line 2, 15-day culture, 72 hours post elicitation): decreased
sodium acetate concentration with the most effective response (dose response, HPTLC) ([1]; line 2, 24 hours, 0 to 51 mM tested): about 10 mM
color change of the root tissue and medium [1]: did not affect the color of the roots
increase of resveratrol above non-elicited culture extracts ([5]; culture medium extracts): ~60 fold
cis-resveratrol levels in elicited cultures, root tissue (average) ([5]; elicited cultures): 10 ng/mg root tissue extract
trans-resveratrol remaining in the root tissue ([5]; elicited cultures): 0.2-1.1 μg/mg extract DW
trans-Resveratrol, Medium ([5]; elicited cultures, ethyl acetate extract of medium, mean of two determinations): 97992 ng per mg extract and 85282 ng per mg extract and 50339 ng per mg extract
cis-Resveratrol, Root tissue ([5]; elicited cultures, extract of root tissue, mean of two determinations): 10 ng per mg extract
production rate of trans-resveratrol per gram DW of root tissue ([5]; estimating 6 mg medium ethyl acetate extract per gram root tissue DW): 300 to 588 µg
share of total trans-resveratrol secreted into the culture medium ([5]; sodium acetate elicitation): approximately 99%
induced compound by reverse phase HPLC ([6]; 24 and 48 hours after elicitation): induced production of a major fluorescence compound
production and secretion of stilbene-like fluorescent compounds (HPTLC) ([6]; lines 3NB, 4NB, 5NB, 6NB, 10.2 mM sodium acetate, 24 or 48 hours): induced production and secretion of compounds with fluorescent characteristics of stilbene compounds
